Test results taken from patent publication US20180105561A1, “ANALOGS OF SODIUM CHANNEL PEPTIDE TOXIN” (priority 2010, published 2018).
Where a SMILES comes first, the peptide text is derived from it. Bridges are numbered along the chain shown (N, C = ends).

Columns and labels:
Nav1.2 (rBIIa) = assay: Sodium channel-blocking assay, Nav1.2 counter-screen; assay type: cell-based, rat; conditions: Table 3, natural toxins
human Nav1.7 = human Nav1.7 (Homo sapiens, UniProt Q15858); assay type: cell-based; conditions: Table 3, natural toxins
human Nav1.7, sequence (Q15858 other isoform, or with tags, fused parts or gaps): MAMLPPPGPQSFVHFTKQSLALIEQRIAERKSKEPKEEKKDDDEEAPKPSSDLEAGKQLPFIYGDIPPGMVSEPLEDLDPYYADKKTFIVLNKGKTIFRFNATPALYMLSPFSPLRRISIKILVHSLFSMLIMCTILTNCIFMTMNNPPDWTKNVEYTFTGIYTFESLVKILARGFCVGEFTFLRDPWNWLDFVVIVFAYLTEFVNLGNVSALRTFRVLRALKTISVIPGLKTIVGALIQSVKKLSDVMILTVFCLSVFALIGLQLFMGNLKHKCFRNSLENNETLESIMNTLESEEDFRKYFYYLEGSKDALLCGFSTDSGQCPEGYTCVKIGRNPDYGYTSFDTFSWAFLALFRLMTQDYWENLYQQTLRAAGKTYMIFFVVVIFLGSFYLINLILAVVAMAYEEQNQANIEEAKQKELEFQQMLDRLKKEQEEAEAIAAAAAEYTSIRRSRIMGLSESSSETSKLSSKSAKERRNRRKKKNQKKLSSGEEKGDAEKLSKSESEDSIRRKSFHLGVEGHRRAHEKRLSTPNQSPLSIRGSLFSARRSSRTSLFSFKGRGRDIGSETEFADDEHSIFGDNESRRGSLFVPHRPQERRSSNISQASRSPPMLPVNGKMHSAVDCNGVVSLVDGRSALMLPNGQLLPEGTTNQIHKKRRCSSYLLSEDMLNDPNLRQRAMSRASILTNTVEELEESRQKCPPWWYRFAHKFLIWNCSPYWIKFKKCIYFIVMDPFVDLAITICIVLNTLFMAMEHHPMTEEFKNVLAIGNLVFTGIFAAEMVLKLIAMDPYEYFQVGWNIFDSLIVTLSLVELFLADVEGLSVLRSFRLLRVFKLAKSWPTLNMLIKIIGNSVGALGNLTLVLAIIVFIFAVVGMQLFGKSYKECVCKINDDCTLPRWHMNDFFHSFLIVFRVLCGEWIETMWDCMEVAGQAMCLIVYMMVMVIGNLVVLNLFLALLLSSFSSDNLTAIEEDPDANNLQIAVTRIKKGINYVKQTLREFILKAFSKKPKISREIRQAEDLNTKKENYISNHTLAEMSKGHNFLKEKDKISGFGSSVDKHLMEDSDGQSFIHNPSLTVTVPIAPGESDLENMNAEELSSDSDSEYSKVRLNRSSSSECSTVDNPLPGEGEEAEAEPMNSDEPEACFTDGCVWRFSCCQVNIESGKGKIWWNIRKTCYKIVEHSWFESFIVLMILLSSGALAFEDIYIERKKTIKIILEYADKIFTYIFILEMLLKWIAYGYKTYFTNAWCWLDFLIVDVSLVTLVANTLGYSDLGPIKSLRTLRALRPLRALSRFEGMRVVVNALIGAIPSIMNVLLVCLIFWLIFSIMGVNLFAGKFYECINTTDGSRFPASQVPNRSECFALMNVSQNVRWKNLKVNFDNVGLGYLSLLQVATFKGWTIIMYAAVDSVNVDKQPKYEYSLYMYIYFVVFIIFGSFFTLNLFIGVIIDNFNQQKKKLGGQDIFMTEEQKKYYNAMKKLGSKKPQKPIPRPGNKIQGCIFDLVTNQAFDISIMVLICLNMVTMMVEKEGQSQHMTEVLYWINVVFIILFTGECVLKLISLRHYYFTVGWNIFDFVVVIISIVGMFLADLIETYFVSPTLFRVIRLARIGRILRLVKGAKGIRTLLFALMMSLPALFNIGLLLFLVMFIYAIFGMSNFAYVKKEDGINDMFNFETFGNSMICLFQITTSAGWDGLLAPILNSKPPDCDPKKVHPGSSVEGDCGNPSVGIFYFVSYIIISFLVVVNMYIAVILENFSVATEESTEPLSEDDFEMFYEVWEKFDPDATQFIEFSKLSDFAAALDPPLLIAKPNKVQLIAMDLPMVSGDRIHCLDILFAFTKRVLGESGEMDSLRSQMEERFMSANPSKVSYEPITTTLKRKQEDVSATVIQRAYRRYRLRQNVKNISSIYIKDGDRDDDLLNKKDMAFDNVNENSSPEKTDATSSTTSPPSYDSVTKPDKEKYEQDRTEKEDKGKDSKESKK

Q: `CC[C@H](C)[C@H](NC(=O)[C@H](CCCCN)NC(=O)[C@H](CCCCN)NC(=O)[C@H](CCCCN)NC(=O)[C@@H]1CSSC[C@@H]2NC(=O)[C@H](CCCCN)NC(=O)[C@H](CCCNC(=N)N)NC(=O)[C@H](CCC(=O)O)NC(=O)[C@H](CCC(=O)O)NC(=O)[C@H](CC(=O)O)NC(=O)[C@@H]3CSSC[C@H](NC(=O)[C@H](C(C)C)NC(=O)[C@H](CC(C)C)NC(=O)CNC(=O)[C@H](CCC(=O)O)NC(=O)[C@H](CSSC[C@H](NC(=O)[C@@H](N)Cc4ccc(O)cc4)C(=O)N[C@@H](CCC(N)=O)C(=O)N[C@@H](CCCCN)C(=O)N[C@@H](Cc4c[nH]c5ccccc45)C(=O)N[C@@H](CCSC)C(=O)N[C@@H](Cc4c[nH]c5ccccc45)C(=O)N[C@@H]([C@@H](C)O)C(=O)N3)NC2=O)C(=O)N[C@@H](CCCNC(=N)N)C(=O)N[C@@H](CC(C)C)C(=O)N[C@@H](Cc2c[nH]c3ccccc23)C(=O)N1)C(=O)N[C@@H](CCC(=O)O)C(=O)N[C@@H](Cc1c[nH]c2ccccc12)C(=O)O` [GsAF II] (H-YCQKWMWTCDEERKCCEGLVCRLWCKKKIEW-OH; disulfide 2-16, 9-21, 15-25) was tested. Which IC50 (Nav1.2 (rBIIa)) did it give?
A: The IC50 was 410 ± 20 nM.

Q: And the IC50 (human Nav1.7)?
A: Its IC50 is 70 ± 10 nM.
